Reference: US20230295201A1 (Gilead Sciences, Inc., priority 2020, published 2023)
Where two headings read alike, the source gives them in different places.

How the values were obtained:
Format in all cases: cell-based
RSV strain A2 = test: RSV HEp-2 EC50 (infectious cytopathic cell protection assay); conditions: HEp-2 cells, RSV A2, 4 days, read-out: RSV HEp-2 EC50
How it was run: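 Percent inhibition of RSV-induced cytopathic effect came from remaining cell viability (CellTiter-Glo luminescence) after 4 days at 37° C. Compounds in 3-fold serial dilutions were exposed to an infectious mix of titered A2 virus and HEp-2 cells at 50,000/ml, with 0% and 100% inhibition control standards.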

RSV A2 = test: RSV NHBE EC50 (RSV A2 antiviral assay in normal human bronchial epithelial cells); conditions: NHBE cells, RSV A2, 4 days, read-out: RSV NHBE EC50
DENV2 replicon = test: DENV-2 Huh-7 Rep EC50 (replicon luminescence); conditions: Huh-7 replicon cells, 48 hours, read-out: DENV-2 Huh-7 Rep EC50
How it was run: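 EC50 derived from luminescence dose-response, normalised to DMSO-only 0% inhibition wells, after 1.5 h with EnduRen substrate. Compounds were first exposed for 48 h at 37° C to DENV2 replicon Huh-7 cells (5,000/well).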

HRV16 = HRV16 HELA EC50 (cytopathic effect in H1-HeLa cells)
How it was run: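 Read-out is luminescent cell viability (CellTiter-Glo) after 96 h of infection at 33 °C, scaled between uninfected and infected-untreated wells. Before infection with titrated virus, compounds went onto H1-HeLa cells as triplicate 3-fold dilution series.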

[1] = human respiratory syncytial virus, HEp-2, 96 h
[2] = human respiratory syncytial virus, NHBE, 96 h
[3] = Dengue virus, DENV2, Huh-7, 48 h
[4] = 96 h, H1-HeLa cells, 33° C., read-out: HRV16 HELA EC50
[5] = H1-HeLa cells, 96 h, 33° C.; read-out: HRV16 HELA EC50

| Compound | EC50 (RSV strain A2; [1]) | EC50 (RSV A2; [2]) | EC50 (DENV2 replicon; [3]) | EC50 (HRV16; [4]) | EC50 (RSV strain A2) | EC50 (RSV A2) | EC50 (DENV2 replicon) | EC50 (HRV16; [5]) |
| --- | --- | --- | --- | --- | --- | --- | --- | --- |
| CC(C)OC(=O)[C@@H](C)NP(=O)(OC[C@@]1(C#N)O[C@@H](c2ccc3c(N)ncnn23)[C@H](O)[C@@H]1O)Oc1ccccc1 (stereo partly drawn) [Example 86, (2R)-isopropyl 2-(((((2R,3S,4R,5S)-5-(4-aminopyrrolo[2,1-f][1,2,4]triazin-7-yl)-2-cyano-3,4-dihydroxytetrahydrofuran-2-yl)methoxy)(phenoxy)phosphoryl)amino)propanoate] | 22.6 µM | > 5 µM | > 50 µM | > 50 µM |  |  |  |  |
| CC[C@H](NP(=O)(OC[C@@]1(C#N)O[C@@H](c2ccc3c(N)ncnn23)[C@H](O)[C@@H]1O)Oc1ccccc1)C(=O)OC(C)C (stereo partly drawn) [Example 87, (2S)-isopropyl 2-(((((2R,3S,4R,5S)-5-(4-aminopyrrolo[2,1-f][1,2,4]triazin-7-yl)-2-cyano-3,4-dihydroxytetrahydrofuran-2-yl)methoxy)(phenoxy)phosphoryl)amino)butanoate] | 1.34 µM | 1.7 µM | > 100 µM | 6.71 µM |  |  |  |  |
| CCOC(=O)[C@H](CC)NP(=O)(OC[C@@]1(C#N)O[C@@H](c2ccc3c(N)ncnn23)[C@H](O)[C@@H]1O)Oc1ccccc1 (stereo partly drawn) [Example 97, (2S)-ethyl 2-(((((2R,3S,4R,5S)-5-(4-aminopyrrolo[2,1-f][1,2,4]triazin-7-yl)-2-cyano-3,4-dihydroxytetrahydrofuran-2-yl)methoxy)(phenoxy)phosphoryl)amino)butanoate] | 0.537 µM | 1.37 µM | > 100 µM | 4.42 µM |  |  |  |  |
| CC(C)[C@H](NP(=O)(OC[C@@]1(C#N)O[C@@H](c2ccc3c(N)ncnn23)[C@H](O)[C@@H]1O)Oc1ccccc1)C(=O)OC1CCCCC1 (stereo partly drawn) [Example 98, cyclohexyl ((((2R,3S,4R,5S)-5-(4-aminopyrrolo[2,1-f][1,2,4]triazin-7-yl)-2-cyano-3,4-dihydroxytetrahydrofuran-2-yl)methoxy)(phenoxy)phosphoryl)-L-valinate] | > 50 µM | > 5 µM | > 50 µM | > 50 µM |  |  |  |  |
| CC(C)OC(=O)C[C@H](C)NP(=O)(OC[C@@]1(C#N)O[C@@H](c2ccc3c(N)ncnn23)[C@H](O)[C@@H]1O)Oc1ccccc1 (stereo partly drawn) [Example 99, (3S)-isopropyl 3-(((((2R,3S,4R,5S)-5-(4-aminopyrrolo[2,1-f][1,2,4]triazin-7-yl)-2-cyano-3,4-dihydroxytetrahydrofuran-2-yl)methoxy)(phenoxy)phosphoryl)amino)butanoate] | > 50 µM | > 5 µM | > 50 µM | > 50 µM |  |  |  |  |
| CCC(CC)COC(=O)C1(NP(=O)(OC[C@@]2(C#N)O[C@@H](c3ccc4c(N)ncnn34)[C@H](O)[C@@H]2O)Oc2ccccc2)CCC1 (stereo partly drawn) [Example 100, 2-ethylbutyl 1-(((((2R,3S,4R,5S)-5-(4-aminopyrrolo[2,1-f][1,2,4]triazin-7-yl)-2-cyano-3,4-dihydroxytetrahydrofuran-2-yl)methoxy)(phenoxy)phosphoryl)amino)cyclobutanecarboxylate] | > 5.6 µM | 3.6 µM | > 50 µM | 18 µM |  |  |  |  |
| C[C@@H](NP(=O)(OC[C@@]1(C#N)O[C@@H](c2ccc3c(N)ncnn23)[C@H](O)[C@@H]1O)Oc1ccccc1)C(=O)OCC(C)(C)C (stereo partly drawn) [Example 102, (2R)-neopentyl 2-(((((2R,3S,4R,5S)-5-(4-aminopyrrolo[2,1-f][1,2,4]triazin-7-yl)-2-cyano-3,4-dihydroxytetrahydrofuran-2-yl)methoxy)(phenoxy)phosphoryl)amino)propanoate] | 9.95 µM | > 5 µM | > 100 µM | 16.7 µM |  |  |  |  |
| CC[C@H](N[P@@](=O)(OC[C@@]1(C#N)O[C@@H](c2ccc3c(N)ncnn23)[C@H](O)[C@@H]1O)Oc1ccccc1)C(=O)OC1CCCCC1 [Example 104] |  |  |  |  | 0.79 µM | 0.368 µM | > 50 µM | 1.8 µM |
| CC[C@H](N[P@](=O)(OC[C@@]1(C#N)O[C@@H](c2ccc3c(N)ncnn23)[C@H](O)[C@@H]1O)Oc1ccccc1)C(=O)OC1CCCCC1 [Example 105] |  |  |  |  | 3.44 µM | 2.02 µM | > 50 µM | 16.9 µM |
| N#C[C@]1(COP(=O)(NC2(C(=O)OC3CCCCC3)CCC2)Oc2ccccc2)O[C@@H](c2ccc3c(N)ncnn23)[C@H](O)[C@@H]1O (stereo partly drawn) [Example 107, cyclohexyl 1-(((((2R,3S,4R,5S)-5-(4-aminopyrrolo[2,1-f][1,2,4]triazin-7-yl)-2-cyano-3,4-dihydroxytetrahydrofuran-2-yl)methoxy)(phenoxy)phosphoryl)amino)cyclobutanecarboxylate] | > 14.2 µM | > 2.89 µM | > 50 µM | > 35.7 µM |  |  |  |  |
| C[C@H](NP(=O)(OC[C@@]1(C#N)O[C@@H](c2ccc3c(N)ncnn23)[C@H](O)[C@@H]1O)Oc1ccccc1)C(=O)OC1CCCC1 (stereo partly drawn) [Example 108, (2S)-cyclopentyl 2-(((((2R,3S,4R,5S)-5-(4-aminopyrrolo[2,1-f][1,2,4]triazin-7-yl)-2-cyano-3,4-dihydroxytetrahydrofuran-2-yl)methoxy)(phenoxy)phosphoryl)amino)propanoate] | 0.147 µM | 0.239 µM | 40.8 µM | 0.289 µM |  |  |  |  |
| CC[C@H](NP(=O)(OC[C@@]1(C#N)O[C@@H](c2ccc3c(N)ncnn23)[C@H](O)[C@@H]1O)Oc1ccccc1)C(=O)OC1CCCC1 (stereo partly drawn) [Example 109, (2S)-cyclopentyl 2-(((((2R,3S,4R,5S)-5-(4-aminopyrrolo[2,1-f][1,2,4]triazin-7-yl)-2-cyano-3,4-dihydroxytetrahydrofuran-2-yl)methoxy)(phenoxy)phosphoryl)amino)butanoate] | 1.07 µM | 0.452 µM | > 50 µM | 2.49 µM |  |  |  |  |
| CCC(CC)COC(=O)[C@@H](NP(=O)(OC[C@@]1(C#N)O[C@@H](c2ccc3c(N)ncnn23)[C@H](O)[C@@H]1O)Oc1ccccc1)C1CCCCC1 (stereo partly drawn) [Example 116, (2S)-2-ethylbutyl 2-(((((2R,3S,4R,5S)-5-(4-aminopyrrolo[2,1-f][1,2,4]triazin-7-yl)-2-cyano-3,4-dihydroxytetrahydrofuran-2-yl)methoxy)(phenoxy)phosphoryl)amino)-2-cyclohexylacetate] | > 100 µM | > 5 µM | 11.7 µM | > 31.9 µM |  |  |  |  |
| C[C@H](NP(=O)(OC[C@@]1(C#N)O[C@@H](c2ccc3c(N)ncnn23)[C@H](O)[C@@H]1O)Oc1ccccc1)C(=O)OC1CCC1 (stereo partly drawn) [Example 118, (2S)-cyclobutyl 2-(((((2R,3S,4R,5S)-5-(4-aminopyrrolo[2,1-f][1,2,4]triazin-7-yl)-2-cyano-3,4-dihydroxytetrahydrofuran-2-yl)methoxy)(phenoxy)phosphoryl)amino)propanoate] | 0.214 µM | 0.316 µM | 27 µM | 0.424 µM |  |  |  |  |
| N#C[C@]1(COP(=O)(N[C@H](C(=O)OCC2CC2)C2CCCCC2)Oc2ccccc2)O[C@@H](c2ccc3c(N)ncnn23)[C@H](O)[C@@H]1O (stereo partly drawn) [Example 121, (2S)-cyclopropylmethyl 2-(((((2R,3S,4R,5S)-5-(4-aminopyrrolo[2,1-f][1,2,4]triazin-7-yl)-2-cyano-3,4-dihydroxytetrahydrofuran-2-yl)methoxy)(phenoxy)phosphoryl)amino)-2-cyclohexylacetate] | > 100 µM | > 5 µM | 56.7 µM | > 100 µM |  |  |  |  |
| C[C@H](NP(=O)(OC[C@@]1(C#N)O[C@@H](c2ccc3c(N)ncnn23)[C@H](O)[C@@H]1O)Oc1ccccc1)C(=O)O[C@H]1CCNC1 (stereo partly drawn) [Example 122, (2S)—(S)-pyrrolidin-3-yl 2-(((((2R,3S,4R,5S)-5-(4-aminopyrrolo[2,1-f][1,2,4]triazin-7-yl)-2-cyano-3,4-dihydroxytetrahydrofuran-2-yl)methoxy)(phenoxy)phosphoryl)amino)propanoate] | 4.04 µM | > 5 µM | > 50 µM | 29.3 µM |  |  |  |  |
| N#C[C@]1(COP(=O)(N[C@H](C(=O)OCC2CC2)C2CCCC2)Oc2ccccc2)O[C@@H](c2ccc3c(N)ncnn23)[C@H](O)[C@@H]1O (stereo partly drawn) [Example 123, (2S)-cyclopropylmethyl 2-(((((2R,3S,4R,5S)-5-(4-aminopyrrolo[2,1-f][1,2,4]triazin-7-yl)-2-cyano-3,4-dihydroxytetrahydrofuran-2-yl)methoxy)(phenoxy)phosphoryl)amino)-2-cyclopentylacetate] | > 100 µM | > 5 µM | 48.5 µM | > 100 µM |  |  |  |  |
| Cc1oc(=O)oc1COC(=O)C1(NP(=O)(OC[C@@]2(C#N)O[C@@H](c3ccc4c(N)ncnn34)[C@H](O)[C@@H]2O)Oc2ccccc2)CCC1 (stereo partly drawn) [Example 125, (5-methyl-2-oxo-1,3-dioxol-4-yl)methyl 1-(((((2R,3S,4R,5S)-5-(4-aminopyrrolo[2,1-f][1,2,4]triazin-7-yl)-2-cyano-3,4-dihydroxytetrahydrofuran-2-yl)methoxy)(phenoxy)phosphoryl)amino)cyclobutane-1-carboxylate] | 3.3 µM | 3.65 µM | > 100 µM | 7.65 µM |  |  |  |  |
